According to patent publication US20100120740A1, “PRODRUGS OF FUSED HETEROCYCLIC INHIBITORS OF D-AMINO ACID OXIDASE” (SEPRACOR INC., priority 2008, published 2010):

Experiment: Rate of hydrolysis of test compounds to 4H-furo[3,2-b]pyrrole-5-carboxylic acid in pH 7.4 and 2.0 aqueous solutions
Assay type: physicochemical
Settings: HPLC; for Hydrolysis rate at pH 7.4: 0.05 M sodium phosphate buffer pH 7.4, 0.013 mg/mL, over 6 hours; for Hydrolysis rate at pH 2.0: water adjusted with phosphoric acid to pH 2.0, 0.013 mg/mL, over 2 hours
Experimental: 10 mM DMSO solutions of test compounds were diluted with a 0.05 M sodium phosphate buffer (pH 7.4) or water adjusted with phosphoric acid to pH 2.0, with a final concentration of 0.013 mg/mL. Samples were analyzed over either 2 or 6 hours, by HPLC. The amount of test compound and the corresponding acid were determined. The rate of conversion of the test compound was calculated based on formation of the corresponding acid and loss of parent.
The rate of hydrolysis of test compounds to 4H-furo[3,2-b]pyrrole-5-carboxylic acid was evaluated in pH 7.4 aqueous solution over 6 hours, and in pH 2.0 aqueous solution over 2 hours, according to General Procedure 15.

Hydrolysis rate at pH 7.4 | Hydrolysis rate at pH 2.0 | SMILES
No hydrolysis | No hydrolysis | O=C(OCC(=O)N1CCC1)c1cc2occc2[nH]1 [Compound 22a, 2-(azetidin-1-yl)-2-oxoethyl 4H-furo[3,2-b]pyrrole-5-carboxylate]
0.21%/hr |  | CC(OC(=O)OC1CCCCC1)OC(=O)c1cc2occc2[nH]1 (centres unmarked) [Compound 36b, 1-(cyclohexyloxycarbonyloxy)ethyl 4H-furo[3,2-b]pyrrole-5-carboxylate]
3.46%/hr |  | CC(OC(=O)c1cc2occc2[nH]1)OC(=O)C(C)C (centres unmarked) [Compound 31b, 1-(isobutyryloxy)ethyl 4H-furo[3,2-b]pyrrole-5-carboxylate]

Continued, molecule first:

SMILES | Hydrolysis rate at pH 7.4 | Hydrolysis rate at pH 2.0
O=C(OCCN1CCOCC1)c1cc2occc2[nH]1 [Compound 24, 2-morpholinoethyl 4H-furo[3,2-b]pyrrole-5-carboxylate] | No hydrolysis | No hydrolysis
O=C(OCC1CCCO1)c1cc2occc2[nH]1 (centres unmarked) [Compound 11, (tetrahydrofuran-2-yl)methyl 4H-furo[3,2-b]pyrrole-5-carboxylate] | No hydrolysis | No hydrolysis
CN(C)C(=O)COC(=O)c1cc2occc2[nH]1 [Compound 20, 2-(dimethylamino)-2-oxoethyl 4H-furo[3,2-b]pyrrole-5-carboxylate] | No hydrolysis | No hydrolysis
O=C(OCC(=O)N1CCOCC1)c1cc2occc2[nH]1 [Compound 21a, 2-morpholino-2-oxoethyl 4H-furo[3,2-b]pyrrole-5-carboxylate] | No hydrolysis | No hydrolysis
Cc1oc(=O)oc1COC(=O)c1cc2occc2[nH]1 [Compound 12, (5-methyl-2-oxo-1,3-dioxol-4-yl)methyl 4H-furo[3,2-b]pyrrole-5-carboxylate] | 0.20%/hr | No hydrolysis
